Experimental data from patent publication US20180078529A1, “ANGIOTENSIN II RECEPTOR AGONIST FOR TREATING PULMONARY FIBROSIS” (VICORE PHARMA AB, priority 2015, published 2018).

Tested on: Patients have a diagnosis of Idiopathic Pulmonary Fibrosis, IPF
Experiment: Treatment of patients with Idiopathic Pulmonary Fibrosis with C21 (Examples 1 and 2)
Format: in vivo, human
Details: a few weeks after starting treatment
Procedure: Patients have a diagnosis of Idiopathic Pulmonary Fibrosis, IPF, who generally are above the age of 60 years, often with concomitant diseases, like ischemic heart disease, diabetes etc. Patients may either be treated for IPF with currently established drugs, e.g. pirfenidone and/or nintedanib or treatment-naïve. Each patient receives a compound of the invention, C21, in a dose range between 0.3 mg and 100 mg daily that is administered once or several times daily. Control groups are administered placebo, or one or more currently established therapies, e.g. pirfenidone and/or nintedanib. The compound, C21, is in a formulation hat can be administered to the patient orally, via inhalation, intravenously or as a combination of more than one route of administration for the treatment of IPF. The treatment is evaluated through efficacy variables such as objective measurements of improved lung capacity/cardiac function and subjective symptoms and quality of life—both at visits to doctors' office and in the patient's home or work environment. Beneficial effects are recorded and followed after one to several months' treatment with the compound, C21, vs placebo or vs currently established therapy(-ies), e.g. pirfenidone and/or nintedanib.
Patients have a diagnosis of Idiopathic Pulmonary Fibrosis, IPF, and are treated according to EXAMPLE 1. […] Furthermore, cardiac function tests, e.g. echo or MRI, may indicate improvements in the underlying lung disease resulting in improved cardiac performance. Benefits may also be seen as an improvement in progression-free survival, where the number of deaths is analyzed together with the number of patients presenting with pre-defined marked reduction of FVC and/or exercise capacity. Benefits can be either self-reported or objectively recorded. Improvements in symptoms may include less dyspnea, less cough, less fatigue, increased exercise capacity and improved quality of life. Improvements may be seen in treatment-naïve patients as well as in those already on treatment with established therapies for IPF.

## CCCCOC(=O)NS(=O)(=O)c1sc(CC(C)C)cc1-c1ccc(Cn2ccnc2)cc1 [Compound C21, N-Butyloxycarbonyl-3-(4-imidazol-1-ylmethylphenyl)-5-iso-butylthiophene-2-sulfonamide]
  dyspnea and cough (patient-reported): slight improvement
Patient with IPF
  exercise capacity: without any deterioration
Patient with IPF, C21 0.3 mg to 100 mg daily
  biomarkers that are relevant for the progression of the disease (blood tests): improvement in biomarkers
